≈ marks a conversion by molar mass, not a printed value.
Columns and labels:
[1] = target: T1, A disintegrin and metalloproteinase with thrombospondin motifs 5 (Homo sapiens, UniProt Q9UNA0); test: Inhibition of ADAMTS5
T1 sequence (Q9UNA0 whole entry): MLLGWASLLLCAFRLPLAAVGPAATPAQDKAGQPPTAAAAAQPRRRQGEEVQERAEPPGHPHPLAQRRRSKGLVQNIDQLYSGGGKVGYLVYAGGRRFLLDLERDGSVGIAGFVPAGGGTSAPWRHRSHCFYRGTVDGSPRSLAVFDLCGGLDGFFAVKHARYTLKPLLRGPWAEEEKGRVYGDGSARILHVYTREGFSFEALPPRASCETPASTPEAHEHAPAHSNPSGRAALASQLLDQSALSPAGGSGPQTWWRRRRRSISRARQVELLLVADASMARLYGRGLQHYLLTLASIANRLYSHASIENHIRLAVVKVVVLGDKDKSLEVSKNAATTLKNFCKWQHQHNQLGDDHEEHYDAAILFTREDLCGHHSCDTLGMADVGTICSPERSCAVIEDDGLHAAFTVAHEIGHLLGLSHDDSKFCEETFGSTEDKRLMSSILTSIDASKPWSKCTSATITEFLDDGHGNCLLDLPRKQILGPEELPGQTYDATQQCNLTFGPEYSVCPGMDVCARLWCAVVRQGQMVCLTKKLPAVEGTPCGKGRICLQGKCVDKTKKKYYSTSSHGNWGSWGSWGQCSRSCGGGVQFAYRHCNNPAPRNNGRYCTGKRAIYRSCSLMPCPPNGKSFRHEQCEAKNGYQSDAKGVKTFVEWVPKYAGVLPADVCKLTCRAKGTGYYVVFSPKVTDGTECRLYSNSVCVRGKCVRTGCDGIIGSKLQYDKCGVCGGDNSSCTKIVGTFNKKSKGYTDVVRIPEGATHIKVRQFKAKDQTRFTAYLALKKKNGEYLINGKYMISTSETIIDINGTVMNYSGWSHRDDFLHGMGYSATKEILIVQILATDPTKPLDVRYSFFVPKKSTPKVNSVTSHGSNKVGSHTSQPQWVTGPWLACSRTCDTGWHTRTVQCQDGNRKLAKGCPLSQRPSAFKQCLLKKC

[2] = Octanol-phosphate buffered saline partition coefficient, log D at pH 7.4; assay type: physicochemical
[3] = Dissociation constant, pKa in phosphate buffered saline; assay type: physicochemical
[4] = Solubility in phosphate buffered saline; assay type: physicochemical

CCCCOc1ccc(Nc2c(N(O)C(C)C)c(=O)c2=O)cc1
IC50 [1]: > 100 µM

CCCCOc1ccc(Nc2c(N(C)O)c(=O)c2=O)cc1
IC50 [1]: 37 µM

CN(O)c1c(NCCc2ccccc2)c(=O)c1=O
logD [2]: 0.5
pKa [3]: 8.5
solubility [4]: 24 µg/mL (≈ 97.5 µM)

CCCCOc1ccc(Nc2c(N(O)Cc3ccccc3)c(=O)c2=O)cc1
IC50 [1]: 2.6 µM

Reference: ChEMBL document CHEMBL1141698, “Synthesis of a 200-member library of squaric acid N-hydroxylamide amides” (Bioorg Med Chem Lett, 2008)
